Among the data in US20240124444A1 (Celgene Corporation, priority 2020, published 2024) are inhibition and EC50 values, retold here.

The test concerns C. parvum strain UGA1. In words: C. parvum growth inhibition assay (Nluc luminescence in HCT-8 cells). Type of test: cell-based, Cryptosporidium parvum. The note with it: Cryptosporidium parvum; for inhibition at 1 µM / inhibition at 10 µM: HCT-8; for inhibition at 1 µM: read-out: % inh @ 1 uM C. parvum; for inhibition at 10 µM: read-out: % inh @ 10 uM C. parvum; for EC50: HCT-8, 48 h, C. parvum growth inhibition in HCT-8 cells, 48 hours, 6 concentrations 10-0.04 μM.

The mark [1] stands for this setting: single point inhibition @ 10 uM.
[2] abbreviates: single point inhibition at 1 uM.
The mark [3] stands for this setting: single point inhibition at 10 uM.

Where two headings read alike, the source gives them in different places. A value given as a limit tells only on which side of the number the result lay.

As for `Cc1nccc(-c2cc3cnc(NC(=O)c4cnn(C)c4)cc3[nH]2)n1` [Example 185, 1-methyl-N-(2-(2-methylpyrimidin-4-yl)-1H-pyrrolo[3,2-c]pyridin-6-yl)-1H-pyrazole-4-carboxamide], the inhibition at 1 µM (single point inhibition @ 1 uM) is 0 to 33%. Also, the inhibition at 10 µM under setting [1] lay in the range of 67 to 100%.

Regarding `CCOc1nccc(-c2cc3cnc(NC(=O)c4cnn(CCO)c4C)cc3[nH]2)n1` [Example 230, N-(2-(2-ethoxypyrimidin-4-yl)-1H-pyrrolo[3,2-c]pyridin-6-yl)-1-(2-hydroxyethyl)-5-methyl-1H_ pyrazole-4-carboxamide], the inhibition at 1 µM under setting [2] lay within 0 to 33%. Further, under setting [3], the inhibition at 10 µM fell in the range of 33 to 66%.

As to `CN1CCC(c2cc3cnc(NC(=O)c4cnn(C)c4)cc3[nH]2)CC1` [Example 336, 1-methyl-N-(2-(1-methylpiperidin-4-yl)-1H-pyrrolo[3,2-c]pyridin-6-yl)-1H-pyrazole-4-carboxamide], the inhibition at 1 µM under setting [2] fell in the range of 0 to 33%. Also, under setting [3], the inhibition at 10 µM lay in the range of 0 to 33%.

On to `Cn1c(-c2ccccc2)cc2cnc(NC(=O)C3CCOCC3)cc21` [Example 265, N-(1-methyl-2-phenyl-1H-pyrrolo[3,2-c]pyridin-6-yl)tetrahydro-2H-pyran-4-carboxamide], for which, under setting [2], the inhibition at 1 µM fell in the range of 0 to 33%. The inhibition at 10 µM under setting [3] lay in the range of 0 to 33%.

`CC(C)c1cc(-c2cc3cnc(NC4CCOCC4)cc3n2C)ncn1` [Example 395, 2-(6-isopropylpyrimidin-4-yl)-1-methyl-N-(tetrahydro-2H-pyran-4-yl)-1H-pyrrolo[3,2-c]pyridin-6-amine] came in with an EC50 of more than 1 µM.

As to `Cn1cc(C(=O)Nc2cc3[nH]c(-c4ccnc(OCC5CCC5)n4)cc3cn2)cn1` [Example 313, N-(2-(2-(cyclobutylmethoxy)pyrimidin-4-yl)-1H-pyrrolo[3,2-c]pyridin-6-yl)-1-methyl-1H-pyrazole-4-carboxamide], the inhibition at 1 µM under setting [2] was in the range of 0 to 33%. The inhibition at 10 µM under setting [3] fell in the range of 0 to 33%.

Turning to `Cc1cc(-c2cc3cnc(NC(=O)C(C)O)cc3[nH]2)ccn1` (stereo in doubt) [Example 263, (R)-2-hydroxy-N-(2-(2-methylpyridin-4-yl)-1H-pyrrolo[3,2-c]pyridin-6-yl)propanamide], the inhibition at 1 µM under setting [2] is 0 to 33%. The inhibition at 10 µM under setting [3] lay in the range of 0 to 33%.

In turn, `Cc1cc(-c2cc3cnc(NC(=O)C4CCC4)cc3[nH]2)ncn1` [Example 98, N-(2-(6-methylpyrimidin-4-yl)-1H-pyrrolo[3,2-c]pyridin-6-yl)cyclobutanecarboxamide] had an EC50 of more than 1 µM.

`COc1ccc(C(=O)Nc2cc3[nH]c(-c4ccnc(C)c4)cc3cn2)cc1OC` [Example 296, 3,4-dimethoxy-N-(2-(2-methylpyridin-4-yl)-1H-pyrrolo[3,2-c]pyridin-6-yl)benzamide]: under setting [2], the inhibition at 1 µM lay within 0 to 33%. For the same compound, the inhibition at 10 µM under setting [3] lay in the range of 0 to 33%.

On to `Cc1cc(-c2[nH]c3cc(NC4CCOCC4)ncc3c2C)ccn1` [Example 362, 3-methyl-2-(2-methylpyridin-4-yl)-N-(tetrahydro-2H-pyran-4-yl)-1H-pyrrolo[3,2-c]pyridin-6-amine], for which the EC50 is more than 1 µM.

Compound `Cn1cc(C(=O)Nc2cc3[nH]c(-c4ccnc(O[C@H]5CC[C@H](O)CC5)n4)cc3cn2)cn1` [Example 85, N-(2-(2-((1r,4r)-4-hydroxycyclohexyloxy)pyrimidin-4-yl)-1H-pyrrolo[3,2-c]pyridin-6-yl)-1-methyl-1H-pyrazole-4-carboxamide] displayed an EC50 of more than 1 µM. The inhibition at 1 µM (single point inhibition @ 1 uM) is 67 to 100%. Also, the inhibition at 10 µM under setting [1] lay within 0 to 33%.

As to `N#Cc1cc2cnc(Nc3cccc(-c4nc[nH]n4)c3)cc2[nH]1` [Example 145, 6-(3-(1H-1,2,4-triazol-3-yl)phenylamino)-1H-pyrrolo[3,2-c]pyridine-2-carbonitrile], the inhibition at 1 µM (single point inhibition @ 1 uM) was in the range of 0 to 33%. In addition, the inhibition at 10 µM under setting [1] is 67 to 100%.

The compound `O=C(Nc1cc2[nH]c(-c3cnc(C4CC4)o3)cc2cn1)C1CC1` [Example 61, N-(2-(2-cyclopropyloxazol-5-yl)-1H-pyrrolo[3,2-c]pyridin-6-yl)cyclopropanecarboxamide] had an EC50 of more than 1 µM.

Turning to `CC(Oc1nccc(-c2cc3cnc(NC(=O)c4cnn(C)c4)cc3[nH]2)n1)C(F)F` (stereo not drawn) [Example 141, N-(2-(2-(1,1-difluoropropan-2-yloxy)pyrimidin-4-yl)-1H-pyrrolo[3,2-c]pyridin-6-yl)-1-methyl-1H-pyrazole-4-carboxamide], the inhibition at 1 µM (single point inhibition @ 1 uM) is 0 to 33%. Moreover, the inhibition at 10 µM under setting [1] lay within 67 to 100%.

Turning to `COc1nccc(-c2cc3cnc(NC(=O)C(C)(C)C)cc3[nH]2)n1` [Example 297, N-(2-(2-methoxypyrimidin-4-yl)-1H-pyrrolo[3,2-c]pyridin-6-yl)pivalamide], under setting [2], the inhibition at 1 µM was in the range of 0 to 33%. The inhibition at 10 µM under setting [3] was 0 to 33%.

`Cc1cc(-c2cc3cnc(NC(=O)C4CC4)cc3n2CCN)ncn1` [Example 75, N-(1-(2-aminoethyl)-2-(6-methylpyrimidin-4-yl)-1H-pyrrolo[3,2-c]pyridin-6-yl)cyclopropanecarboxamide]: the EC50 was more than 1 µM.

On to `Cn1cc(C(=O)Nc2cc3[nH]c(C4CC4)cc3cn2)cn1` [Example 88, N-(2-cyclopropyl-1H-pyrrolo[3,2-c]pyridin-6-yl)-1-methyl-1H-pyrazole-4-carboxamide], for which the EC50 is more than 1 µM. Besides, the inhibition at 1 µM (single point inhibition @ 1 uM) is 33 to 66%. In addition, the inhibition at 10 µM under setting [1] was in the range of 0 to 33%.

Turning to `CN(CC(F)(F)F)c1cc(-c2cc3cnc(NC4CCOCC4)cc3[nH]2)ncn1` [Example 44, 2-(6-(Methyl(2,2,2-trifluoroethyl)amino)pyrimidin-4-yl)-N-(tetrahydro-2H-pyran-4-yl)-1H-pyrrolo[3,2-c]pyridin-6-amine], where the note is “single point inhibition @ 1 uM”, the inhibition at 1 µM is 0 to 33%. The inhibition at 10 µM under setting [1] lay within 67 to 100%.

In the case of `Cc1cc(-c2cc3cnc(NC(=O)OC4CCOC4)cc3[nH]2)ccn1` (stereo in doubt) [Example 152, (R)-tetrahydrofuran-3-yl 2-(2-methylpyridin-4-yl)-1H-pyrrolo[3,2-c]pyridin-6-ylcarbamate], the inhibition at 1 µM (single point inhibition @ 1 uM) is 0 to 33%. The inhibition at 10 µM under setting [1] lay in the range of 67 to 100%.

For `Cn1c(C(F)(F)F)cc2cnc(NC(=O)C3CC3)cc21` [Example 77, N-(1-methyl-2-(trifluoromethyl)-1H-pyrrolo[3,2-c]pyridin-6-yl)cyclopropanecarboxamide], the EC50 is more than 1 µM.

On to `CCn1cc(C(=O)Nc2cc3[nH]c(-c4ccnc(OCC(F)(F)F)n4)cc3cn2)c(C)n1` [Example 242, 1-ethyl-3-methyl-N-(2-(2-(2,2,2-trifluoroethoxy)pyrimidin-4-yl)-1H-pyrrolo[3,2-c]pyridin-6-yl)-1H-pyrazole-4-carboxamide], for which the inhibition at 1 µM under setting [2] is 0 to 33%. Moreover, under setting [3], the inhibition at 10 µM is 0 to 33%.

Take `COc1nccc(-c2cc3cnc(NC(=O)c4cnn(C5CCCC5)c4)cc3[nH]2)n1` [Example 183, 1-cyclopentyl-N-(2-(2-methoxypyrimidin-4-yl)-1H-pyrrolo[3,2-c]pyridin-6-yl)-1H-pyrazole-4-carboxamide]: the inhibition at 1 µM (single point inhibition @ 1 uM) was 0 to 33%. The inhibition at 10 µM under setting [1] was 67 to 100%.

In the case of `O=C(Nc1cc2[nH]c(-c3ccnc(C(F)(F)F)n3)cc2cn1)C1CC(O)C1` (stereo not drawn) [Example 247, (1s,3s)-3-hydroxy-N-(2-(2-(trifluoromethyl)pyrimidin-4-yl)-1H-pyrrolo[3,2-c]pyridin-6-yl)cyclobutanecarboxamide], the inhibition at 1 µM under setting [2] fell in the range of 33 to 66%. The inhibition at 10 µM under setting [3] lay within 0 to 33%.
